{"source": "paper PMC9241669", "about": "“Allantodapsone is a Pan-Inhibitor of Staphylococcus aureus Adhesion to Fibrinogen, Loricrin, and Cytokeratin 10” (Microbiology Spectrum, 2022)", "key": {"S. aureus Newman": {"tested_on": "S. aureus Newman", "assay": "Adhesion of S. aureus Newman to immobilized fibrinogen (crystal violet)", "format": "cell-based, Staphylococcus aureus", "procedure": "FIG 1 Allantodapsone inhibits S. aureus Newman adhesion to fibrinogen. Dose response curves for S. aureus Newman (A), L. lactis ClfA (B), and L. lactis ClfB (C) adhesion to fibrinogen. Fibrinogen was used to coat plates at 4°C overnight at 10 μg/mL. Wells were washed with PBS and blocked with 1% BSA. Washed bacteria (OD600 of 1) were mixed with the relevant concentration of allantodapsone or vehicle control (DMSO) for 5 min, and added to the wells, incubating for 2 h at 37°C. Adherent cells were washed, fixed, and stained with crystal violet, and wells further washed. The dye was dissolved in acetic acid and the absorbance measured at 570 nm. IC50 values were generated using GraphPad Prism 9.0 GraphPad software, San Diego, CA. Data are representative of three experiments with error presented as SEM.\nFIG 2 Allantodapsone inhibits S. aureus adhesion to fibrinogen. (A) S. aureus Newman stationary phase and (B) exponential phase. (C) S. aureus SH1000 stationary phase and (D) exponential phase bacteria. Fibrinogen was used to coat plates at 4°C overnight at 10 μg/mL. Wells were washed with PBS and blocked with 1% BSA. Washed bacteria (OD600 of 1) were mixed with the relevant concentration of allantodapsone or vehicle control for 5 min, and added to the wells, incubating for 2 h at 37°C. Adherent cells were washed, fixed, and stained with crystal violet, and wells further washed. The dye was dissolved in acetic acid and the absorbance measured at 570 nm. Compounds were screened at a concentration of 70 μM and compared to their vehicle control. Statistical analysis was carried out using repeated measures ANOVA followed by multiple comparisons Dunnett’s tests using GraphPad PRISM. **, P ≤ 0.01; ***, P ≤ 0.001; ****, P ≤ 0.0001 (n = 3).\n(§1) Adhesion assays were carried out according to Hartford et al. ([37]). Briefly, plates were coated with 10 μg/mL fibrinogen (Calbiochem, Darmstadt, Germany) or 20 μg/mL fibronectin (Sigma-Aldrich, Ireland) for 2 h at 37°C or for 16 h at 4°C. Plates were blocked with 1% BSA at 37°C for 1 h and washed 3 times in PBS. Washed bacteria were incubated at 37°C for 2 h. Adherent bacteria were washed three times in PBS and fixed in 5–9% formaldehyde at room temperature for 30 min. Wells were washed three times in PBS and stained using 5% crystal violet for 20 min. Wells were washed three times in PBS, and the crystal violet solubilized using 5% acetic acid. Plates were read at 570 nm on a Wallac Victor2, (Shelton, CT, USA). The minimum adhesion inhibitory concentration (MAIC) was determined as the concentration inhibiting greater than 90% bacterial adhesion.\nCompounds were added to the bacterial suspension prior to addition to the wells. In each experiment, vehicle controls were prepared using the same volume of vehicle for the matching test compound."}, "S. aureus SH1000": {"tested_on": "S. aureus SH1000", "assay": "Adhesion of S. aureus SH1000 to fibronectin", "format": "cell-based, Staphylococcus aureus", "conditions": "fibronectin 20 μg/mL, Fig. S2", "procedure": "as §1, with “adhesion. […]” for “adhesion.”\nfibronectin. Fibronectin was used to coat plates at 4 °C overnight at 20 μg/mL.\nWells were washed with PBS and blocked with 1% BSA. Washed bacteria (OD600 of 1) were added with the relevant concentration of allantodapsone or vehicle control, and incubated for 2 hours at 37 °C. Adherent cells were washed, fixed, stained with crystal violet and wells further washed. The dye was dissolved in acetic acid and the absorbance measured at 570 nm. […]"}, "U-937 cells": {"tested_on": "U-937 cells", "format": "cell-based, human", "conditions": "100 μM, undifferentiated U-937 monocyte cells, n=2, preliminary", "procedure": "V. Microbiology: Materials and Methods\nThe MTT toxicity assay (1) (Vybrant MTT Cell Proliferation Assay, Molecular Probes, Or, USA) was used to measure cytotoxicity. Myeloid lineage, U-937 cells (2) were grown in RPMI-1640 (Gibco) culture medium supplemented with 10% foetal calf serum, 1% L-glutamine and 1% Penicillin/Streptomycin (Gibco). U-937 cells were centrifuged and cells diluted with fresh medium containing 1.2 mM MTT solution to a concentration of (5-6 x 10^6 per mL) and incubated at 37 °C for 2 h. Cells were centrifuged and the pellet dissolved in DMSO. The absorbance was read at 490 nm using the Wallac Victor2, (Shelton, Connecticut, USA).\nPlatelet aggregation was performed in platelet rich plasma according to O’Brien et al.\nS. aureus Newman (stationary phase) was washed and diluted to an OD600 of 2.5.\nThis was mixed with 10 mg/mL of fibrinogen in 1:1 ratio resulting in a final concentration 5 mg/mL fibrinogen. Fibrinogen -bacteria aggregates clump and settle at the bottom of the tube resulting in a clear solution. These were compared to the turbid bacterial suspension in buffer by visual inspection. […]\nwas tested for toxicity using the MTT assay (VybrantTM MTT Cell Proliferation Assay, Molecular Probes, OR, USA). 10% DMSO is used as a positive control in this assay.\nAllantodapsone was incubated with undifferentiated U-937 monocyte cells at 100\nµM. […]"}}, "note": "Where “and” joins values, the source holds several entries; their conditions need not be identical. Identical values can stand only once. Like-named read-outs stand apart in the source and are kept apart here.", "data": [{"smiles": "Nc1ccc(S(=O)(=O)c2ccc(NCN3C(=O)NC(=O)C(=O)C3=O)cc2)cc1", "note": "[Allantodapsone]", "values": [{"measurement": "minimum adhesion inhibitory concentration (MAIC)", "setting": "S. aureus Newman; S. aureus Newman stationary phase, concentration inhibiting greater than 90% adhesion to fibrinogen", "value": "100 μM and 40.2 μg/mL"}, {"measurement": "inhibition of adhesion to fibrinogen", "setting": "S. aureus Newman; S. aureus Newman, stationary and exponential phase, compounds screened at 70 μM (Fig. 2)", "value": "inhibited"}, {"measurement": "IC50", "setting": "S. aureus Newman; Staphylococcus aureus, NEWMAN, read-out: IC50, inhibition of adhesion to fibrinogen, S. aureus Newman exponential phase", "value": 32.8, "unit": "µM"}, {"measurement": "IC50", "setting": "S. aureus Newman; Staphylococcus aureus, NEWMAN, read-out: IC50, inhibition of adhesion to fibrinogen, S. aureus Newman stationary phase, fibrinogen 10 μg/mL", "value": 23, "unit": "µM"}, {"measurement": "IC50", "setting": "S. aureus Newman; read-out: IC50, inhibition of adhesion to fibrinogen, S. aureus Newman stationary phase, fibrinogen 10 μg/mL", "value": 21.3, "unit": "µM"}, {"measurement": "inhibition of adhesion to fibronectin (words)", "setting": "S. aureus SH1000", "value": "does not inhibit"}, {"measurement": "inhibition of adhesion to fibronectin (words)", "setting": "S. aureus SH1000; listed as allantodapsone", "value": "did not inhibit"}, {"measurement": "toxic effect on human cells, MTT (words)", "setting": "U-937 cells", "value": "no toxic effect"}, {"measurement": "toxic effect on human cells, MTT (words)", "setting": "U-937 cells; listed as allantodapsone", "value": "no toxic effects"}]}]}
